Like-named read-outs stand apart in the source and are kept apart here. Where no end group is shown, it is not given here.
Experiments:
[1] = tested on: indicated HLA alleles; experiment: Stability of mutant EGFR neopeptides with the HLA alleles; assay type: binding, human; settings: EGFR_T790M
Description: Multiple peptides containing neoepitopes in the table below were either expressed or loaded onto antigen presenting cells. Mass spectrometry was then performed and the affinity of the neoepitopes for indicated HLA alleles were determined, and the stability of the neoepitopes with the HLA alleles were determined.

[2] = for Solubility in […] SS in D5W w/ 4% DMSO: […] sodium succinate in D5W; for Solubility in […] SS in D5W w/ 4% DMSO / Solubility in 0.5 mM SS in D5W w/ 4% DMSO / Solubility in […] SS in D5W w/o DMSO: no polyICLC; for Solubility in 0.5 mM SS in D5W w/ 4% DMSO: 0.5 mM sodium succinate in D5W; for Solubility in […] SS in D5W w/o DMSO / Solubility in Poly ICLC + […] SS in D5W w/o DMSO / Solubility in Poly ICLC + 5 mM SS in D5W w/o DMSO: no DMSO; for solubility: without DMSO

## CSCC[C@H](NC(=O)[C@H](CC(C)C)NC(=O)[C@H](CCC(N)=O)NC(=O)[C@@H](N)CCSC)C(=O)N1CCC[C@H]1C(=O)N[C@@H](Cc1ccccc1)C(=O)NCC(=O)N[C@@H](CS)C(=O)N[C@@H](CC(C)C)C(=O)O
[1]; HLA A02.01
  Stability (1/2 hr): 0.3683 h
[1]; HLA B07.02
  Stability (1/2 hr): 0 h
[1]; HLA B08.01
  Stability (1/2 hr): 0 h

## CSCC[C@H](N)C(=O)N[C@@H](Cc1ccccc1)C(=O)N[C@@H](C)C(=O)N[C@H](C(=O)N[C@@H](CC(C)C)C(=O)N[C@@H](CCC(N)=O)C(=O)N[C@@H](CCCNC(=N)N)C(=O)N[C@@H](CO)C(=O)N[C@@H](CO)C(=O)N[C@@H](CC(C)C)C(=O)N[C@@H](Cc1c[nH]c2ccccc12)C(=O)N[C@@H](CS)C(=O)N[C@@H](CC(C)C)C(=O)N[C@@H](CS)C(=O)O)[C@@H](C)O [Peptide L12c]
[2]; 4% DMSO
  Solubility in […] SS in D5W w/ 4% DMSO: No

## KAESKIMFATLQRSSLWCL [Peptide 11d]
[2]; 4% DMSO
  Solubility in 0.5 mM SS in D5W w/ 4% DMSO: Yes
  Solubility in […] SS in D5W w/ 4% DMSO: Yes
[2]
  Solubility in […] SS in D5W w/o DMSO: Yes
[2]; with polyICLC
  Solubility in Poly ICLC + […] SS in D5W w/o DMSO: Yes

## YMFLKAESKIMFATLQRSS [Peptide 11c]
[2]; 4% DMSO
  Solubility in 0.5 mM SS in D5W w/ 4% DMSO: Yes
  Solubility in […] SS in D5W w/ 4% DMSO: Yes
[2]; with polyICLC, 4% DMSO
  Solubility in Poly ICLC + […] SS in D5W w/ 4% DMSO: No

## KPKRDGYMFLKAESKIMFATLQR [Peptide 10]
[2]; 4% DMSO
  Solubility in […] SS in D5W w/ 4% DMSO: Yes
[2]; with polyICLC, 5 mM SS in D5W, 4% DMSO
  Solubility in Poly ICLC + 5 mM SS in D5W w/ 4% DMSO: No
[2]; with polyICLC, 4% DMSO
  Solubility in Poly ICLC + […] SS in D5W w/ 4% DMSO: No

## KPKRDGYMFLKAESKIMFAT [Peptide 10b]
[2]; 4% DMSO
  Solubility in 0.5 mM SS in D5W w/ 4% DMSO: Yes
  Solubility in […] SS in D5W w/ 4% DMSO: Yes
[2]; with polyICLC, 4% DMSO
  Solubility in Poly ICLC + […] SS in D5W w/ 4% DMSO: No

## GPPARVPAVPFDLHFCRSSIMKPKRD [Peptide L8]
[2]; 0.4 mg/mL in […] SS, after 6 hours
  solubility: soluble
[2]; 5 mM SS (higher SS concentration) in D5W
  solubility in 5 mM SS: soluble
[2]; 5 mM SS, after 6 hours
  solubility: soluble

## CSCC[C@H](NC(=O)[C@H](CC(C)C)NC(=O)[C@H](CCC(N)=O)NC(=O)[C@@H](N)CCSC)C(=O)N1CCC[C@H]1C(=O)N[C@@H](Cc1ccccc1)C(=O)NCC(=O)N[C@@H](CS)C(=O)N[C@@H](CC(C)C)C(=O)N[C@@H](CC(C)C)C(=O)O
[1]; HLA A02.01
  Stability (1/2 hr): 0.3811 h
[1]; HLA A24.02
  Stability (1/2 hr): 0 h
[1]; HLA B08.01
  Stability (1/2 hr): 0 h

## CC[C@H](C)[C@H](NC(=O)[C@H](CC(C)C)NC(=O)[C@H](CCC(N)=O)NC(=O)[C@@H](N)C(C)C)C(=O)N[C@@H](CCSC)C(=O)N[C@@H](CCC(N)=O)C(=O)N[C@@H](CC(C)C)C(=O)N[C@@H](CCSC)C(=O)N1CCC[C@H]1C(=O)N[C@@H](Cc1ccccc1)C(=O)O
[1]; HLA A02.01
  Stability (1/2 hr): 0 h
[1]; HLA A24.02
  Stability (1/2 hr): 0 h
[1]; HLA B08.01
  Stability (1/2 hr): 0 h

## LHFCRSSIMKPKRDGYMFLKAESKI [Peptide 9]
[2]; 4% DMSO
  Solubility in 0.5 mM SS in D5W w/ 4% DMSO: Yes
  Solubility in […] SS in D5W w/ 4% DMSO: Yes
[2]
  Solubility in […] SS in D5W w/o DMSO: Yes
[2]; with polyICLC, 5 mM SS in D5W
  Solubility in Poly ICLC + 5 mM SS in D5W w/o DMSO: Yes
[2]; with polyICLC, 4% DMSO
  Solubility in Poly ICLC + […] SS in D5W w/ 4% DMSO: Yes

## DGYMFLKAESKIMFAT [Peptide L11e]
[2]; 4% DMSO
  Solubility in […] SS in D5W w/ 4% DMSO: No

## CC[C@H](C)[C@H](NC(=O)[C@H](CCCCN)NC(=O)[C@H](CO)NC(=O)[C@@H](N)CCC(=O)O)C(=O)N[C@@H](CCSC)C(=O)N[C@@H](Cc1ccccc1)C(=O)N[C@@H](C)C(=O)N[C@H](C(=O)N[C@@H](CC(C)C)C(=O)N[C@@H](CCC(N)=O)C(=O)N[C@@H](CCCNC(=N)N)C(=O)N[C@@H](CO)C(=O)N[C@@H](CO)C(=O)N[C@@H](CC(C)C)C(=O)O)[C@@H](C)O [Peptide L11i]
[2]; 0.4 mg/mL, D5W with all SS concentrations tested
  solubility: soluble
[2]; 2 mg/mL in the higher SS concentration, D5W
  solubility: Some precipitation
[2]
  Solubility in […] SS in D5W w/o DMSO: Yes
[2]; lower SS concentration ([…] SS/D5W)
  solubility in low SS: soluble
[2]; with polyICLC
  Solubility in Poly ICLC + […] SS in D5W w/o DMSO: Yes

## GPPARVPAVPFDLHFCRSSIMKPKRD [Peptide 8]
[2]; 4% DMSO
  Solubility in 0.5 mM SS in D5W w/ 4% DMSO: Yes
  Solubility in […] SS in D5W w/ 4% DMSO: Yes
[2]
  Solubility in […] SS in D5W w/o DMSO: Yes
[2]; with polyICLC, 0.5 mM SS in D5W, 4% DMSO
  Solubility in Poly ICLC + 0.5 mM SS in D5W w/ 4% DMSO: Yes
[2]; with polyICLC, 5 mM SS in D5W
  Solubility in Poly ICLC + 5 mM SS in D5W w/o DMSO: Yes
[2]; with polyICLC, 4% DMSO
  Solubility in Poly ICLC + […] SS in D5W w/ 4% DMSO: Yes
[2]; with polyICLC
  Solubility in Poly ICLC + […] SS in D5W w/o DMSO: Yes
